Source: patent publication US20240376090A1, “ISOXAZOLE DERIVATIVES AS MODULATORS OF THE 5-HT2A SEROTONIN RECEPTOR USEFUL FOR THE TREATMENT OF DISORDERED RELATED THERETO” (Arena Pharmaceuticals, Inc., priority 2020, published 2024)

Molecular target: 5-HT2A receptor (Homo sapiens (Human), UniProt P28223)
Assay: Radioligand binding assay ([3H]5-HT competition), 5-HT2A
Conditions: [3H]5-HT radioligand, membranes of HEK293 cells expressing recombinant 5-HT2A; Ki from IC50 by Cheng-Prusoff; read-out: 5-HT2A serotonin binding Ki value
Description: Competition binding experiments consisted of addition of 5 μL of serially diluted test compound, 50 μL of radioligand stock diluted in Assay Buffer (20 mM HEPES, pH 7.4, 10 mM MgCl2), and 145 μL of diluted membrane expressing the receptor of interest to 96-well microtiter plates, which were then incubated for one hour at room temperature. Assay incubations were terminated by rapid filtration through Perkin Elmer GF/C filtration plates under vacuum pressure using a 96-well Packard filtration apparatus, followed by washing the filter plates several times with ice cold Assay Buffer. Plates were then dried at 45° C. for a minimum of four hours. Finally, 25 μL of BetaScint scintillation cocktail was added to each well and the plates were counted in a Packard TopCount scintillation counter. In each competition study, test compounds were assayed at 10 concentrations with three replicates at each test concentration. Dose-response curves were constructed to determine IC50 values and these were converted to corresponding Ki values using the Cheng-Prusoff equation.

5-HT2A receptor, sequence (P28223 whole entry): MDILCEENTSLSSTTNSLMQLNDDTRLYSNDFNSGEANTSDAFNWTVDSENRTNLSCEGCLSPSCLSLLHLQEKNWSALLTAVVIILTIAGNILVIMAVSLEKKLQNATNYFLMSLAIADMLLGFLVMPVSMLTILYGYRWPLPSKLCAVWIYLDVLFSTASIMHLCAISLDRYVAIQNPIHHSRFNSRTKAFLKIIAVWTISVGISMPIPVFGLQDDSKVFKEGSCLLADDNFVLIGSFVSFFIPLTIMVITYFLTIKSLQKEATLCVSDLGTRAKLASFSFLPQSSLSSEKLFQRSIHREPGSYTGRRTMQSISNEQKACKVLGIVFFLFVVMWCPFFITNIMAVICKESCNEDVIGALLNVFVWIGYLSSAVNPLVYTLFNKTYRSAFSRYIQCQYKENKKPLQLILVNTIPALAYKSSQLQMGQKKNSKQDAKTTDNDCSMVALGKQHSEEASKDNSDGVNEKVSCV

Compound	Ki [nM]
Cc1noc(C)c1-c1cc(NC(=O)[C@H]2C[C@H]2F)ccc1OCCN1CCCC1 [Compound 107, (1R,2R)—N-(3-(3,5-dimethylisoxazol-4-yl)-4-(2-(pyrrolidin-1-yl)ethoxy)phenyl)-2-fluorocyclopropane-1-carboxamide]	15.1
Cc1noc(C)c1-c1cc(NC(=O)C2CC2)ccc1O[C@@H]1CCNC1 [Compound 181, (R)—N-(3-(3,5-dimethylisoxazol-4-yl)-4-(pyrrolidin-3-yloxy)phenyl)cyclopropanecarboxamide]	10
CCN(CC)CCOc1ccc(NC(=O)C2CC2)cc1-c1c(C)noc1C [Compound 153, N-(4-(2-(diethylamino)ethoxy)-3-(3,5-dimethylisoxazol-4-yl)phenyl)cyclopropanecarboxamide]	109
Cc1noc(C)c1-c1cc(NC(=O)c2ccccc2)ccc1OCCN1C[C@@H]2C[C@H]1CO2 [Compound 161, N-[3-(3,5-dimethylisoxazol-4-yl)-4-[2-[(1S,4S)-2-oxa-5-azabicyclo[2.2.1]heptan-5-yl]ethoxy]phenyl]benzamide]	6.4
COC1(CC(=O)Nc2ccc(OC[C@H]3CCCCN3)c(-c3c(C)noc3C)c2)CCC1 [Compound 205, (R)—N-(3-(3,5-dimethylisoxazol-4-yl)-4-(piperidin-2-ylmethoxy)phenyl)-2-(1-methoxycyclobutyl)acetamide]	105
Cc1noc(C)c1-c1cc(NC(=O)C2CC2)ccc1OC[C@H]1CCCN1 [Compound 175, (R)—N-(3-(3,5-dimethylisoxazol-4-yl)-4-(pyrrolidin-2-ylmethoxy)phenyl)cyclopropanecarboxamide]	41.6
Cc1noc(C)c1-c1cc(NC(=O)C2CC2)ccc1OCCN1CCC2(CC1)CC(=O)N2 [Compound 140, N-(3-(3,5-dimethylisoxazol-4-yl)-4-(2-(2-oxo-1,7-diazaspiro[3.5]nonan-7-yl)ethoxy)phenyl)cyclopropanecarboxamide]	228
Cc1nc(C(=O)Nc2ccc(OC[C@H]3CCCCN3)c(-c3c(C)noc3C)c2)c(C)o1 [Compound 216, (R)—N-(3-(3,5-dimethylisoxazol-4-yl)-4-(piperidin-2-ylmethoxy)phenyl)-2,5-dimethyloxazole-4-carboxamide]	298
Cc1noc(C)c1-c1cc(NC(=O)Cc2ccc(F)cn2)ccc1OC[C@H]1CCCCN1 [Compound 227, (R)—N-(3-(3,5-dimethylisoxazol-4-yl)-4-(piperidin-2-ylmethoxy)phenyl)-2-(5-fluoropyridin-2-yl)acetamide]	91.6
CCc1cc(C(=O)Nc2ccc(OC[C@H]3CCCCN3)c(-c3c(C)noc3C)c2)n(C)n1 [Compound 209, (R)—N-(3-(3,5-dimethylisoxazol-4-yl)-4-(piperidin-2-ylmethoxy)phenyl)-3-ethyl-1-methyl-1H-pyrazole-5-carboxamide]	36.3
Cc1ncsc1CC(=O)Nc1ccc(OCCN2CCC2)c(-c2c(C)noc2C)c1 [Compound 127, N-(4-(2-(azetidin-1-yl)ethoxy)-3-(3,5-dimethylisoxazol-4-yl)phenyl)-2-(4-methylthiazol-5-yl)acetamide]	8.51
Cc1noc(C)c1-c1cc(NC(=O)[C@@H]2C[C@@H]2F)ccc1OCCN1CCCC1 [Compound 108, (1S,2S)—N-(3-(3,5-dimethylisoxazol-4-yl)-4-(2-(pyrrolidin-1-yl)ethoxy)phenyl)-2-fluorocyclopropane-1-carboxamide]	6.21
Cc1noc(C)c1-c1cc(NC(=O)C2CC2)ccc1OC1CN(C)C1 [Compound 132, N-[3-(3,5-dimethylisoxazol-4-yl)-4-(1-methylazetidin-3-yl)oxy-phenyl]cyclopropanecarboxamide]	46.1
Cc1noc(C)c1-c1cc(NC(=O)C2CC2)ccc1OCCN1CCC2(CCOC2=O)CC1 [Compound 142, N-(3-(3,5-dimethylisoxazol-4-yl)-4-(2-(1-oxo-2-oxa-8-azaspiro[4.5]decan-8-yl)ethoxy)phenyl)cyclopropanecarboxamide]	67.4
Cc1noc(C)c1-c1cc(NC(=O)C2CC2)ccc1OCCN1C[C@@H]2C[C@H]1CO2 [Compound 160, N-(4-(2-((1S,4S)-2-oxa-5-azabicyclo[2.2.1]heptan-5-yl)ethoxy)-3-(3,5-dimethylisoxazol-4-yl)phenyl)cyclopropanecarboxamide]	4.07
Cc1noc(C)c1-c1cc(NC(=O)C2CC2)ccc1OCCN(C)C1CCC1 [Compound 152, N-(4-(2-(cyclobutyl(methyl)amino)ethoxy)-3-(3,5-dimethylisoxazol-4-yl)phenyl)cyclopropanecarboxamide]	41.7
Cc1noc(C)c1-c1cc(NC(=O)C2CC2)ccc1OCCN(C)CC1CC1 [Compound 151, N-(4-(2-((cyclopropylmethyl)(methyl)amino)ethoxy)-3-(3,5-dimethylisoxazol-4-yl)phenyl)cyclopropanecarboxamide]	47.1

Compound	Ki [nM]
Cc1ncsc1C(=O)Nc1ccc(OC[C@H]2CCCCN2)c(-c2c(C)noc2C)c1 [Compound 193, (R)—N-(3-(3,5-dimethylisoxazol-4-yl)-4-(piperidin-2-ylmethoxy)phenyl)-4-methylthiazole-5-carboxamide]	2.69
Cc1noc(C)c1-c1cc(NC(=O)C2CC2)ccc1OCC1CCN1 (stereo not shown) [Compound 174, N-[4-(azetidin-2-ylmethoxy)-3-(3,5-dimethylisoxazol-4-yl)phenyl]cyclopropanecarboxamide]	48
Cc1noc(C)c1-c1cc(NC(=O)C2CC2)ccc1O[C@H]1CCNC1 [Compound 180, (S)—N-(3-(3,5-dimethylisoxazol-4-yl)-4-(pyrrolidin-3-yloxy)phenyl)cyclopropanecarboxamide]	186
Cc1noc(C)c1-c1cc(NC(=O)c2ccccc2)ccc1OCCN1CCC1 [Compound 120, N-(4-(2-(azetidin-1-yl)ethoxy)-3-(3,5-dimethylisoxazol-4-yl)phenyl)benzamide]	9.41
COCCNCCOc1ccc(NC(=O)C2(F)CC2)cc1-c1c(C)noc1C [Compound 237, N-[3-(3,5-dimethylisoxazol-4-yl)-4-[2-(2-methoxyethylamino)ethoxy]phenyl]-1-fluoro-cyclopropanecarboxamide]	1.14
Cc1noc(C)c1-c1cc(NC(=O)C2CC2)ccc1OCCN1CCN(C)C(=O)C1 [Compound 156, N-[3-(3,5-dimethylisoxazol-4-yl)-4-[2-(4-methyl-3-oxo-piperazin-1-yl)ethoxy]phenyl]cyclopropanecarboxamide]	145
Cc1noc(C)c1-c1cc(NC(=O)C2CC23CCOCC3)ccc1OC[C@H]1CCCCN1 (stereo partly drawn) [Compound 203, N-(3-(3,5-dimethylisoxazol-4-yl)-4-(((R)-piperidin-2-yl)methoxy)phenyl)-6-oxaspiro[2.5]octane-1-carboxamide]	27.8
Cc1noc(C)c1-c1cc(NC(=O)c2cc(Cl)ccn2)ccc1OCCN1CCCC1 [Compound 105, 4-chloro-N-(3-(3,5-dimethylisoxazol-4-yl)-4-(2-(pyrrolidin-1-yl)ethoxy)phenyl)picolinamide]	3.94
Cc1cnoc1C(=O)Nc1ccc(OC[C@H]2CCCCN2)c(-c2c(C)noc2C)c1 [Compound 195, (R)—N-(3-(3,5-dimethylisoxazol-4-yl)-4-(piperidin-2-ylmethoxy)phenyl)-4-methylisoxazole-5-carboxamide]	15.2
Cc1nocc1C(=O)Nc1ccc(OC[C@H]2CCCCN2)c(-c2c(C)noc2C)c1 [Compound 183, (R)—N-(3-(3,5-dimethylisoxazol-4-yl)-4-(piperidin-2-ylmethoxy)phenyl)-3-methylisoxazole-4-carboxamide]	5.09
COC1CCN(CCOc2ccc(NC(=O)C3CC3)cc2-c2c(C)noc2C)CC1 [Compound 143, N-(3-(3,5-dimethylisoxazol-4-yl)-4-(2-(4-methoxypiperidin-1-yl)ethoxy)phenyl)cyclopropanecarboxamide]	84
Cc1noc(C)c1-c1cc(NC(=O)C2(F)CC2)ccc1O[C@@H]1CCCNC1 [Compound 235, (R)—N-(3-(3,5-dimethylisoxazol-4-yl)-4-(piperidin-3-yloxy)phenyl)-1-fluorocyclopropane-1-carboxamide]	45.2
CCN1CC(Oc2ccc(NC(=O)C3CC3)cc2-c2c(C)noc2C)C1 [Compound 133, N-(3-(3,5-dimethylisoxazol-4-yl)-4-((1-ethylazetidin-3-yl)oxy)phenyl)cyclopropanecarboxamide]	51.3
Cc1noc(C)c1-c1cc(NC(=O)c2cc(F)ccn2)ccc1OCCN1CCCC1 [Compound 104, N-(3-(3,5-dimethylisoxazol-4-yl)-4-(2-(pyrrolidin-1-yl)ethoxy)phenyl)-4-fluoropicolinamide]	19.6
Cc1noc(C)c1-c1cc(NC(=O)C2CC2)ccc1OCCN1CCOCC1 [Compound 166, N-[3-(3,5-dimethylisoxazol-4-yl)-4-(2-morpholinoethoxy)phenyl]cyclopropanecarboxamide]	6.54
COc1ccc(CC(=O)Nc2ccc(OCCN3CCC3)c(-c3c(C)noc3C)c2)cc1 [Compound 126, N-(4-(2-(azetidin-1-yl)ethoxy)-3-(3,5-dimethylisoxazol-4-yl)phenyl)-2-(4-methoxyphenyl) acetamide]	5.28
Cc1noc(C)c1-c1cc(NC(=O)Cc2nccs2)ccc1OC[C@H]1CCCCN1 [Compound 213, (R)—N-(3-(3,5-dimethylisoxazol-4-yl)-4-(piperidin-2-ylmethoxy)phenyl)-2-(thiazol-2-yl)acetamide]	4.73
